For experiment [1], the system named is Staphylococcus aureus. Nature of the experiment: Antibacterial activity against methicillin-resistant Staphylococcus aureus clinical isolate measured after overnight incubation at 37 degC. It counts as functional.
Experiment [2] concerns Candida albicans. Nature of the experiment: Antimicrobial activity against Candida albicans SC5314 measured after overnight incubation at 35 degC by broth microdilution assay. Format: functional. (In general: In broth dilution the organism is exposed to a series of concentrations in liquid medium.)

One may read the MIC as the smallest concentration in the dilution series that meets the test's criterion for growth inhibition. Lower therefore signals inhibition by little substance.

`CCCCCC/C=C/[C@H]1CC2=C(O1)[C@H](O)CCC2=O` [TRICHODERMAKETONE D]: in experiment [1], the minimum inhibitory concentration (MIC) is over 100 µg/mL.

For the compound `CCCCCC[C@@H]1O[C@@H]2C3=C(O[C@@H]2[C@@H]1O)[C@H](O)CCC3=O` [TRICHODERMAKETONE A], the results for the MIC in experiment [2] and in experiment [1] were over 125 µg/mL and over 100 µg/mL, respectively. Regarding `CCCCCC[C@H]1O[C@H]2C3=C(O[C@H]2[C@H]1O)[C@H](O)CCC3=O` [TRICHODERMAKETONE B], in experiment [1], the MIC was over 100 µg/mL. Same read-out and setting: as for `CCCCCC[C@H](O)[C@@H]1C[C@@H](OC)C2=C(O1)[C@H](O)CCC2=O`, the figure is over 100 µg/mL; as for `CCCCCC/C=C/[C@@H]1CC2=C(O1)[C@H](O)CCC2=O` [TRICHODERMAKETONE C], over 100 µg/mL.

Source of the values: ChEMBL document CHEMBL1158574, “Trichodermaketones A-D and 7-O-methylkoninginin D from the marine fungus Trichoderma koningii” (2010).
